Measured values published in US7138361B2, “Herbicidal heterocycles” (E. I. du Pont de Nemours and Company, priority 2000, dated 2006).

Key:
Type in all cases: in vivo
[1] = tested on: velvetleaf (Abutilon theophrasti); experiment: Test B preemergence
Summary of the method: (§1)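 Visual injury scores, 0 = no effect to 100 = complete control, assigned against controls after 13 to 15 days in the greenhouse. Compounds formulated in non-phytotoxic solvent plus surfactant and applied to soil after planting (pre) or onto foliage of 1- to 4-leaf plants (post).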

rice (Oryza saliva) [2] = experiment: Test B preemergence
Summary of the method: as §1

[3] = tested on: barnyardgrass (Echinochloa crus-galli); experiment: Test B preemergence
Summary of the method: as §1

[4] = tested on: Surinam grass (Brachiaria decumbens); experiment: Test B preemergence
Summary of the method: as §1

[5] = tested on: lambsquarters (Chenopodium album); experiment: Test B preemergence
Summary of the method: as §1

[6] = tested on: morning glory (Ipomoea hederacea); experiment: Test B preemergence
Summary of the method: as §1

[7] = tested on: pigweed (Amaranthus retroflexus); experiment: Test B preemergence
Summary of the method: as §1

[8] = tested on: crabgrass (Digitaria sanguinalis); experiment: Test B preemergence
Summary of the method: as §1

corn (Zea mays) = experiment: Test B preemergence
Summary of the method: as §1

[9] = tested on: giant foxtail (Setaria faberii); experiment: Test B preemergence
Summary of the method: as §1

[10] = tested on: cocklebur (Xanthium strumarium); experiment: Test B preemergence
Summary of the method: as §1

rice (Oryza saliva) [11] = experiment: Test C flooded paddy test; settings: for Rice plant response rating: Flooded Paddy, Rate 500 g/ha, scale 0 to 100, 0 no effect, 100 complete control; for Plant response rating, Rice / Plant response rating (scale 0 to 100), Rice: flooded paddy test; for Plant response rating, Rice: scale 0 to 100 (0 no effect, 100 complete control); for Plant response rating (scale 0 to 100), Rice: Rate 62 g/ha, visually evaluated after 12 to 14 days, 0 = no effect, 100 = complete control
Summary of the method: (§2)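 2-leaf-stage plants, flooded paddy; treated; greenhouse 12–14 days; compared with controls by eye; rated 0–100 (0 none, 100 complete control).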

[12] = tested on: barnyardgrass (Echinochloa crus-galli); experiment: Test C flooded paddy test; settings: for Barnyardgrass plant response rating: Flooded Paddy, Rate 500 g/ha, scale 0 to 100, 0 no effect, 100 complete control; for Plant response rating, Barnyardgrass / Plant response rating (scale 0 to 100), Barnyardgrass: flooded paddy test; for Plant response rating, Barnyardgrass: scale 0 to 100 (0 no effect, 100 complete control); for Plant response rating (scale 0 to 100), Barnyardgrass: Rate 62 g/ha, visually evaluated after 12 to 14 days, 0 = no effect, 100 = complete control
Summary of the method: as §2

[13] = tested on: duck salad (Heteranthera limosa); experiment: Test C flooded paddy test; settings: for Ducksalad plant response rating: Flooded Paddy, Rate 500 g/ha, scale 0 to 100, 0 no effect, 100 complete control; for Plant response rating, Ducksalad / Plant response rating (scale 0 to 100), Ducksalad: flooded paddy test; for Plant response rating, Ducksalad: scale 0 to 100 (0 no effect, 100 complete control); for Plant response rating (scale 0 to 100), Ducksalad: Rate 62 g/ha, visually evaluated after 12 to 14 days, 0 = no effect, 100 = complete control
Summary of the method: as §2

[14] = tested on: smallflower flatsedge (Cyperus difformis); experiment: Test C flooded paddy test; settings: for Flatsedge plant response rating: Flooded Paddy, Rate 500 g/ha, scale 0 to 100, 0 no effect, 100 complete control; for Plant response rating, Flatsedge / Plant response rating (scale 0 to 100), Flatsedge: flooded paddy test; for Plant response rating, Flatsedge: scale 0 to 100 (0 no effect, 100 complete control); for Plant response rating (scale 0 to 100), Flatsedge: Rate 62 g/ha, visually evaluated after 12 to 14 days, 0 = no effect, 100 = complete control
Summary of the method: as §2

Nightshade = experiment: Test C preemergence; settings: Rate 500 g/ha, visual evaluation after 12 to 14 days
Sunflower = experiment: Test C preemergence; settings: Rate 250 g/ha, scale 0 to 100, 0 no effect, 100 complete control
[15] = tested on: barnyardgrass (Echinochloa crus-galli); experiment: Test B postemergence
Summary of the method: as §1

[16] = tested on: Surinam grass (Brachiaria decumbens); experiment: Test B postemergence
Summary of the method: as §1

[17] = tested on: blackgrass (Alopecurus myosuroides); experiment: Test B postemergence
Summary of the method: as §1

[18] = tested on: lambsquarters (Chenopodium album); experiment: Test B postemergence
Summary of the method: as §1

[19] = tested on: morning glory (Ipomoea hederacea); experiment: Test B postemergence
Summary of the method: as §1

wild oat (Avena fatua) = experiment: Test B postemergence
Summary of the method: as §1

[20] = tested on: pigweed (Amaranthus retroflexus); experiment: Test B postemergence
Summary of the method: as §1

[21] = tested on: crabgrass (Digitaria sanguinalis); experiment: Test B postemergence
Summary of the method: as §1

[22] = tested on: cocklebur (Xanthium strumarium); experiment: Test B postemergence
Summary of the method: as §1

[23] = Preemergence, Rate 500 g/ha, scale 0 to 100, 0 no effect, 100 complete control
[24] = preemergence, Rate 125 g/ha, scale of 0 to 100 where 0 is no effect and 100 is complete control, 13 to 15 days
[25] = Rate 125 g/ha, scale 0 to 100, 0 no effect, 100 complete control
[26] = Rate 500 g/ha, scale 0 (no effect) to 100 (complete control), 13 to 15 days

In the case of `CCC(C)c1ccn(C2CCN(c3ccc(Br)c(OC)c3)C2=O)n1` (centres unmarked) [Compound 142], the “Plant response rating, Velvetleaf” value [1, 23] is reported as 90, the “Plant response rating, Velvetleaf” value [1, 24] is reported as 20 and the “Plant response rating, Rice” value (rice (Oryza saliva) [2]; [23]) is reported as 40. For the same compound, the “Plant response rating, Rice” value (rice (Oryza saliva) [2]; [24]) was 20, the “Plant response rating, Barnyardgrass” value [3, 23] was 100 and the “Plant response rating, Barnyardgrass” value [3, 24] was 100. The “Plant response rating, Surinam grass” value [4, 23] was 100, the “Plant response rating, Surinam grass” value [4, 24] was 100 and the “Plant response rating, Lambsquarters” value [5, 23] was 100. The “Plant response rating, Lambsquarters” value [5, 24] was 100, the “Plant response rating, Morningglory” value [6, 23] was 50 and the “Plant response rating, Morningglory” value [6, 24] was 20. For the same compound, the “Plant response rating, Pigweed” value [7, 23] was 100, the “Plant response rating, Pigweed” value [7, 24] was 100 and the “Plant response rating, Crabgrass” value [8, 23] was 100. For the same compound, the “Plant response rating, Crabgrass” value [8, 24] was 100, the “Plant response rating, Corn” value (corn (Zea mays); [23]) was 20 and the “Plant response rating, Corn” value (corn (Zea mays); [24]) was 0. For the same compound, the “Plant response rating, Foxtail, Giant” value [9, 23] was 100, the “Plant response rating, Foxtail, Giant” value [9, 24] was 100 and the “Plant response rating, Cocklebur” value [10, 23] was 60. For the same compound, the “Plant response rating, Cocklebur” value [10, 24] was 0, the “Rice plant response rating” value (rice (Oryza saliva) [11]) was 55 and the “Plant response rating, Rice” value (rice (Oryza saliva) [11]; Rate 125 g/ha) was 25. For the same compound, the “Plant response rating, Rice” value (rice (Oryza saliva) [11]; Rate 250 g/ha) was 45, the “Plant response rating (scale 0 to 100), Rice” value (rice (Oryza saliva) [11]) was 0 and the “Barnyardgrass plant response rating” value [12] was 100. For the same compound, the “Plant response rating, Barnyardgrass” value ([12]; Rate 125 g/ha) was 100, the “Plant response rating, Barnyardgrass” value ([12]; Rate 250 g/ha) was 100 and the “Plant response rating (scale 0 to 100), Barnyardgrass” value [12] was 80. For the same compound, the “Ducksalad plant response rating” value [13] was 100, the “Plant response rating, Ducksalad” value ([13]; Rate 125 g/ha) was 90 and the “Plant response rating, Ducksalad” value ([13]; Rate 250 g/ha) was 100. The “Plant response rating (scale 0 to 100), Ducksalad” value [13] was 30, the “Flatsedge plant response rating” value [14] was 95 and the “Plant response rating, Flatsedge” value ([14]; Rate 125 g/ha) was 95. For the same compound, the “Plant response rating, Flatsedge” value ([14]; Rate 250 g/ha) was 95, the “Plant response rating (scale 0 to 100), Flatsedge” value [14] was 95 and the “Plant response rating (0 to 100), Nightshade” value (Nightshade) was 100. For the same compound, the “Plant response rating, Sunflower” value (Sunflower) was 80, the “Plant response rating, Barnyardgrass” value [15, 25] was 0 and the “Plant response rating, Barnyardgrass” value [15, 26] was 60. The “Plant response rating, Surinam grass” value [16, 25] was 0, the “Plant response rating, Surinam grass” value [16, 26] was 0 and the “Plant response rating, Blackgrass” value [17, 25] was 0. The “Plant response rating, Blackgrass” value [17, 26] was 0, the “Plant response rating, Lambsquarters” value [18, 25] was 70 and the “Plant response rating, Lambsquarters” value [18, 26] was 100. The “Plant response rating, Morningglory” value [19, 25] was 70, the “Plant response rating, Morningglory” value [19, 26] was 100 and the “Plant response rating, Wild Oat” value (wild oat (Avena fatua); [25]) was 0. The “Plant response rating, Wild Oat” value (wild oat (Avena fatua); [26]) was 0, the “Plant response rating, Pigweed” value [20, 25] was 60 and the “Plant response rating, Pigweed” value [20, 26] was 80. The “Plant response rating, Crabgrass” value [21, 25] was 40, the “Plant response rating, Crabgrass” value [21, 26] was 60 and the “Plant response rating, Cocklebur” value [22, 25] was 60. The “Plant response rating, Cocklebur” value [22, 26] was 90.

In the case of `CCC(CC)c1ccn(C2CCN(c3ccc(Br)c(OC)c3)C2=O)n1` (centres unmarked) [Compound 143], the “Plant response rating, Velvetleaf” value [1, 23] is reported as 80, the “Plant response rating, Velvetleaf” value [1, 24] is reported as 60 and the “Plant response rating, Rice” value (rice (Oryza saliva) [2]; [23]) is reported as 30. The “Plant response rating, Rice” value (rice (Oryza saliva) [2]; [24]) was 0, the “Plant response rating, Barnyardgrass” value [3, 23] was 100 and the “Plant response rating, Barnyardgrass” value [3, 24] was 100. The “Plant response rating, Surinam grass” value [4, 23] was 90, the “Plant response rating, Surinam grass” value [4, 24] was 80 and the “Plant response rating, Lambsquarters” value [5, 23] was 100. For the same compound, the “Plant response rating, Lambsquarters” value [5, 24] was 100, the “Plant response rating, Morningglory” value [6, 23] was 70 and the “Plant response rating, Morningglory” value [6, 24] was 20. For the same compound, the “Plant response rating, Pigweed” value [7, 23] was 100, the “Plant response rating, Pigweed” value [7, 24] was 100 and the “Plant response rating, Crabgrass” value [8, 23] was 100. The “Plant response rating, Crabgrass” value [8, 24] was 100, the “Plant response rating, Corn” value (corn (Zea mays); [23]) was 20 and the “Plant response rating, Corn” value (corn (Zea mays); [24]) was 0. The “Plant response rating, Foxtail, Giant” value [9, 23] was 100, the “Plant response rating, Foxtail, Giant” value [9, 24] was 100 and the “Plant response rating, Cocklebur” value [10, 23] was 30. For the same compound, the “Plant response rating, Cocklebur” value [10, 24] was 0, the “Rice plant response rating” value (rice (Oryza saliva) [11]) was 60 and the “Plant response rating, Rice” value (rice (Oryza saliva) [11]; Rate 125 g/ha) was 30. For the same compound, the “Plant response rating, Rice” value (rice (Oryza saliva) [11]; Rate 250 g/ha) was 50, the “Plant response rating (scale 0 to 100), Rice” value (rice (Oryza saliva) [11]) was 0 and the “Barnyardgrass plant response rating” value [12] was 100. For the same compound, the “Plant response rating, Barnyardgrass” value ([12]; Rate 125 g/ha) was 100, the “Plant response rating, Barnyardgrass” value ([12]; Rate 250 g/ha) was 100 and the “Plant response rating (scale 0 to 100), Barnyardgrass” value [12] was 55. For the same compound, the “Ducksalad plant response rating” value [13] was 100, the “Plant response rating, Ducksalad” value ([13]; Rate 125 g/ha) was 75 and the “Plant response rating, Ducksalad” value ([13]; Rate 250 g/ha) was 95. The “Plant response rating (scale 0 to 100), Ducksalad” value [13] was 45, the “Flatsedge plant response rating” value [14] was 100 and the “Plant response rating, Flatsedge” value ([14]; Rate 125 g/ha) was 95. The “Plant response rating, Flatsedge” value ([14]; Rate 250 g/ha) was 95, the “Plant response rating (scale 0 to 100), Flatsedge” value [14] was 90 and the “Plant response rating (0 to 100), Nightshade” value (Nightshade) was 100. For the same compound, the “Plant response rating, Sunflower” value (Sunflower) was 80, the “Plant response rating, Barnyardgrass” value [15, 25] was 0 and the “Plant response rating, Barnyardgrass” value [15, 26] was 70. For the same compound, the “Plant response rating, Surinam grass” value [16, 25] was 0, the “Plant response rating, Surinam grass” value [16, 26] was 0 and the “Plant response rating, Blackgrass” value [17, 25] was 0. The “Plant response rating, Blackgrass” value [17, 26] was 0, the “Plant response rating, Lambsquarters” value [18, 25] was 80 and the “Plant response rating, Lambsquarters” value [18, 26] was 100. The “Plant response rating, Morningglory” value [19, 25] was 30, the “Plant response rating, Morningglory” value [19, 26] was 100 and the “Plant response rating, Wild Oat” value (wild oat (Avena fatua); [25]) was 0. The “Plant response rating, Wild Oat” value (wild oat (Avena fatua); [26]) was 0, the “Plant response rating, Pigweed” value [20, 25] was 70 and the “Plant response rating, Pigweed” value [20, 26] was 90. The “Plant response rating, Crabgrass” value [21, 25] was 0, the “Plant response rating, Crabgrass” value [21, 26] was 80 and the “Plant response rating, Cocklebur” value [22, 25] was 0. The “Plant response rating, Cocklebur” value [22, 26] was 100.
